Test results as given in ChEMBL document CHEMBL3045282, “Production of phytotoxins by Phoma exigua var. exigua, a potential mycoherbicide against perennial thistles” (J Agric Food Chem, 2008).
The source made the active and inactive calls. No cut-off for these calls is given here.

Assays:
[1] = test system: Cirsium arvense; experiment: Herbicidal activity against Cirsium arvense (Canada thistle) assessed as induction of leaf necrotic lesions measured 48 hr post compound treatment by leaf disk- puncture bioassay
[2] = test system: Sonchus arvensis; experiment: Herbicidal activity against Sonchus arvensis (field sow-thistle) assessed as induction of leaf necrotic lesions measured 48 hr post compound treatment by leaf disk- puncture bioassay

Compound | Activity [1] | Activity [2]
C=C1[C@@H](C)[C@H]2[C@H](Cc3ccccc3)NC(=O)[C@]23OC(=O)/C=C/CC(O)CC[C@@H](C)C/C=C/[C@H]3[C@@H]1O (stereo partly specified) | Active | –
C[C@H]1C/C=C/[C@H]2C=C(CO)[C@@H](C)[C@H]3[C@H](Cc4ccccc4)NC(=O)[C@]32OC(=O)/C=C/[C@H](O)CCC1 | Active | Active
O=Cc1ccc(O)cc1 | inactive | inactive
C[C@H]1C/C=C/[C@H]2[C@@H]3O[C@]3(C)[C@@H](C)[C@H]3[C@H](Cc4ccccc4)NC(=O)[C@]32OC(=O)/C=C/[C@@H](O)CCC1 | Active | Active
C=C1[C@@H](C)[C@H]2[C@H](Cc3ccccc3)NC(=O)[C@]23OC(=O)/C=C/[C@H](O)CCC[C@@H](C)C/C=C/[C@H]3[C@@H]1O | Active | Active
C=C1[C@@H](C)[C@H]2[C@H](Cc3ccccc3)NC(=O)[C@]23C(=O)/C=C/[C@H](O)CCC[C@@H](C)C/C=C/[C@H]3[C@@H]1O | Active | Active
